Ends that are not written are not given here.
Test: Water solubility at 20° C. and pH 6.5 (turbid appearance, 10 mg peptide in 10 ml de-mineralised water)
Assay type: physicochemical

Compound	Peptide category (water solubility)
C[C@H](N)C(=O)N[C@@H](C)C(=O)N[C@@H](C)C(=O)N[C@@H](C)C(=O)N[C@@H](C)C(=O)N[C@@H](C)C(=O)O [AAAAAA]	Insoluble peptides
AAAAAAAA [AAAAAAAA]	Insoluble peptides
DDDDDD [DDDDDD]	Soluble peptides
EAEWEY [EAEWEY]	Soluble peptides
GSGGSG [GSGGSG]	Soluble peptides

Continued, values first:

Peptide category (water solubility)	Compound
Insoluble peptides	LLLLLL [LLLLLL]
Soluble peptides	VEWEME [VEWEME]
